Assays:
[1] = target: Carbonic anhydrase 5B, mitochondrial (Homo sapiens, UniProt Q9Y2D0)
[2] = target: Carbonic anhydrase 5A, mitochondrial (Homo sapiens, UniProt P35218)
Carbonic anhydrase 5A, mitochondrial, sequence (P35218 whole entry): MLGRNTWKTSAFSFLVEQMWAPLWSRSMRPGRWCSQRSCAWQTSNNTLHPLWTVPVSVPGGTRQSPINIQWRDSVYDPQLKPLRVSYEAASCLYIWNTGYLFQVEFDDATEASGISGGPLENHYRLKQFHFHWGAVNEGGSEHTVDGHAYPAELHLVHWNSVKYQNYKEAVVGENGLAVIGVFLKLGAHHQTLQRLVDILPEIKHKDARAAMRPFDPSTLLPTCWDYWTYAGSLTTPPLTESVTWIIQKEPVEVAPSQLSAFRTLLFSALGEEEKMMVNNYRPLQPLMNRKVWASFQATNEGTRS

Carbonic anhydrase 5B, mitochondrial, sequence (Q9Y2D0 whole entry): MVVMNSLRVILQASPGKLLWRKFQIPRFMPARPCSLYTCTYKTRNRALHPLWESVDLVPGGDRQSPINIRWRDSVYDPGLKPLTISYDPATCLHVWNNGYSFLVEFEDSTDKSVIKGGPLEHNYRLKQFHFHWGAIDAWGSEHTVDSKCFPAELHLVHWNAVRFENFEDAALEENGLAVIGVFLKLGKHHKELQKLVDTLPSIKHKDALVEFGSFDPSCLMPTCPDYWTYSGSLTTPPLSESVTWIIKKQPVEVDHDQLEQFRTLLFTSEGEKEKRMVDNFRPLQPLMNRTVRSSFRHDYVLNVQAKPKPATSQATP

| SMILES | Ki [1] [nM] | Ki [2] [nM] |
| --- | --- | --- |
| NS(=O)(=O)c1ccc(CNC(=O)Cc2cccs2)cc1 | 7.2 | 9.1 |
| NS(=O)(=O)c1ccc(CCNC(=O)Cc2cccs2)cc1 | 8 | 10.2 |
| NS(=O)(=O)c1ccc(NC(=O)Cc2ccccc2)cc1 | 7.9 | 6.7 |
| NS(=O)(=O)c1ccc(NC(=O)Cc2cccs2)cc1 | 7 | 7.2 |
